Experimental data published in the supplement of paper PMC4862054.
Values joined by “and” are separate entries in the source; they are usually repeats but may differ in a detail not shown here. Equal values may be shown once.

Key:
Details in all cases: incubation time: 72 h
CAL-148 [1] = assay: drug sensitivity score (DSS), CellTox Green (DSS (AUC-based score)); higher = stronger drug effect (viability inhibition or cytotoxicity); extreme values may be limits of the assay
Method in brief: (§1)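 Plates with 384 wells held compound at 5 concentrations in 10-fold steps over a 10,000-fold range specific to each compound. Breast cancer cell lines were added in 20 µl suspension and incubated 72 h, then read for CellTox Green and CellTiter-Glo signals, with each plate normalised to 0.1 % DMSO and a positive kill control. The drug sensitivity score is based on the area under the fitted dose-response curve.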

CAL-120 [2] = assay: as above
Method in brief: as §1

BT-474 [3] = assay: as above
Method in brief: as §1

MDA-MB-453 [4] = assay: as above
Method in brief: as §1

Hs578T [5] = assay: as above
Method in brief: as §1

HCC1143 [6] = assay: as above
Method in brief: as §1

HDQ-P1 [7] = assay: as above
Method in brief: as §1

DU-4475 [8] = assay: as above
Method in brief: as §1

BT-549 [9] = assay: as above
Method in brief: as §1

CAL-51 [10] = assay: as above
Method in brief: as §1

MDA-MB-231 = assay: normalised viability (% of control), CellTiter-Blue; higher = more viable cells (about 100 = DMSO control)
Method: (§2)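 DSRT, CellTiter-Blue viability, 72 h incubation. Signal is normalised to DMSO and benzethonium chloride controls. Value is the normalised response at dose 3.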

MDA-MB-468 = assay: as above
Method: as §2

CAL-148 [11] = assay: as above
Method: as §2

CAL-120 [12] = assay: as above
Method: as §2

BT-474 [13] = assay: as above
Method: as §2

HCC1937 = assay: as above
Method: as §2

MDA-MB-453 [14] = assay: as above
Method: as §2

HCC1599 = assay: as above
Method: as §2

Hs578T [15] = assay: as above
Method: as §2

HCC1143 [16] = assay: as above
Method: as §2

MDA-MB-436 = assay: as above
Method: as §2

CAL-85-1 = assay: as above
Method: as §2

HDQ-P1 [17] = assay: as above
Method: as §2

MFM-223 = assay: as above
Method: as §2

SK-BR-3 = assay: as above
Method: as §2

DU-4475 [18] = assay: as above
Method: as §2

BT-549 [19] = assay: as above
Method: as §2

CAL-51 [20] = assay: as above
Method: as §2

CAL-120 [21] = assay: drug sensitivity score (DSS), CellTiter-Glo (DSS (AUC-based score)); higher = stronger drug effect (viability inhibition or cytotoxicity); extreme values may be limits of the assay
Method in brief: as §1

Row | SMILES | drug sensitivity score (CAL-148 [1]) | drug sensitivity score (CAL-120 [2]) | drug sensitivity score (BT-474 [3]) | drug sensitivity score (MDA-MB-453 [4]) | drug sensitivity score (Hs578T [5]) | drug sensitivity score (HCC1143 [6]) | drug sensitivity score (HDQ-P1 [7]) | drug sensitivity score (DU-4475 [8]) | drug sensitivity score (BT-549 [9]) | drug sensitivity score (CAL-51 [10]) | normalised viability (MDA-MB-231; 100 nM) | normalised viability (MDA-MB-468; 100 nM) | normalised viability (CAL-148 [11]; 10 nM) | normalised viability (CAL-120 [12]; 100 nM) | normalised viability (BT-474 [13]; 100 nM) | normalised viability (HCC1937; 100 nM) | normalised viability (MDA-MB-453 [14]; 10 nM) [%] | normalised viability (HCC1599; 100 nM) | normalised viability (Hs578T [15]; 100 nM) | drug sensitivity score (CAL-120 [21]) | other results
1 | N#Cc1ccc(COC[C@H]2O[C@@H](n3c(NCc4ccc(Cl)c(Cl)c4)nc4c(N)ncnc43)[C@H](O)[C@@H]2O)cc1 | 0 | 0 | 0 | 0 | 0 | 0 | 0 | 0 | 0 | 0 | 90.1% | 94.5% | 103% | 106% | 123% | 99.4% | 105 | 97.1% | 95.8% | 0 | normalised viability (HCC1143 [16]; 100 nM): 94.7%; normalised viability (MDA-MB-436; 100 nM): 104%; normalised viability (CAL-85-1; 10 nM): 110%; normalised viability (HDQ-P1 [17]; 10 nM): 116%; normalised viability (MFM-223; 100 nM): 93.9%; normalised viability (SK-BR-3; 100 nM): 89.7%; normalised viability (DU-4475 [18]; 10 nM): 111%; normalised viability (BT-549 [19]; 100 nM): 95.2%; normalised viability (CAL-51 [20]; 10 nM): 109%
2 | Oc1ccc2c(c1)CC[C@H](c1ccccc1)[C@@H]2c1ccc(OCCN2CCCC2)cc1 [Lasofoxifene] | 0 | 0 | 0 | 0 | 3.26 | 0 | 0 | 0 | 0 | 0 |  |  |  |  |  |  |  |  |  | 0 | normalised viability (MDA-MB-231; 10 nM): 90.1%; normalised viability (MDA-MB-468; 10 nM): 87.2%; normalised viability (CAL-148 [11]; 1 nM): 101%; normalised viability (CAL-120 [12]; 10 nM): 86.9%; normalised viability (BT-474 [13]; 10 nM): 122%; normalised viability (HCC1937; 10 nM): 87.2%; normalised viability (MDA-MB-453 [14]; 1 nM): 108%; normalised viability (HCC1599; 10 nM): 104%; normalised viability (Hs578T [15]; 10 nM): 84.3%; normalised viability (HCC1143 [16]; 10 nM): 90.7%; normalised viability (MDA-MB-436; 10 nM): 85.3%; normalised viability (CAL-85-1; 1 nM): 94.4%; normalised viability (HDQ-P1 [17]; 1 nM): 107%; normalised viability (MFM-223; 10 nM): 82.8%; normalised viability (SK-BR-3; 10 nM): 83.2%; normalised viability (DU-4475 [18]; 1 nM): 98.7%; normalised viability (BT-549 [19]; 10 nM): 113%; normalised viability (CAL-51 [20]; 1 nM): 95.1%
3 | O=C(/C=C/c1cccc(S(=O)(=O)Nc2ccccc2)c1)NO [Belinostat] | 8.43 | 9.87 | 8.01 | 0.0261 | 6.63 | 0 | 0 | 3.83 | 0 | 13 | 93.7% | 88.5% | 91% | 66.3% | 90.4% | 92.4% | 95.8 | 82.8% | 70.2% | 13.1 | normalised viability (HCC1143 [16]; 100 nM): 96.6%; normalised viability (MDA-MB-436; 100 nM): 95.3%; normalised viability (CAL-85-1; 10 nM): 89.7%; normalised viability (HDQ-P1 [17]; 10 nM): 121%; normalised viability (MFM-223; 100 nM): 96.4%; normalised viability (SK-BR-3; 100 nM): 65.7%; normalised viability (DU-4475 [18]; 10 nM): 109%; normalised viability (BT-549 [19]; 100 nM): 91.2%; normalised viability (CAL-51 [20]; 10 nM): 105%
4 | COc1cc2ncnc(Nc3ccc(F)c(Cl)c3)c2cc1OCCCN1CCOCC1 [Gefitinib] | 2.34 | 0 |  | 0 | 0 | 0 | 0 | 0 | 0 | 0 | 93.9% and 97% | 81.7% and 89.3% | 84.8% and 87.6% | 81.9% and 92.8% | 92.3% and 101% | 102% and 92% | 96.9 | 102% and 113% | 86.3% and 99.7% | 0 | normalised viability (HCC1143 [16]; 100 nM): 63% and 86.8%; normalised viability (MDA-MB-436; 100 nM): 89.9% and 93.7%; normalised viability (CAL-85-1; 10 nM): 94.2% and 95.5%; normalised viability (HDQ-P1 [17]; 10 nM): 103% and 100%; normalised viability (MFM-223; 100 nM): 98.7% and 89.5%; normalised viability (SK-BR-3; 100 nM): 80.9% and 72.1%; normalised viability (DU-4475 [18]; 10 nM): 108% and 93.9%; normalised viability (BT-549 [19]; 100 nM): 108%; normalised viability (CAL-51 [20]; 10 nM): 107%
